From patent US6518268B1, “Telomerase inhibitors and methods of their use” (Geron Corporation, priority 1999, dated 2003)

Experiments:
[1] = target: T1, partially purified telomerase from a nuclear extract of HEK293 cells (Homo sapiens, UniProt O14746); assay: In vitro telomerase inhibition, membrane hybridization method (U.S. Pat. No. 5,760,062); type: biochemical; settings: for IC50: partially purified telomerase from nuclear extract of HEK293 cells; for residual activity of in vitro telomerase activity (in parenthesis): in the presence of the compound at a concentration of 10 μm
T1 construct: partially purified telomerase from a nuclear extract of HEK293 cells; endogenous in cells; host or cells: HEK293 cells, nuclear extract, partially purified
T1 sequence (O14746 whole entry): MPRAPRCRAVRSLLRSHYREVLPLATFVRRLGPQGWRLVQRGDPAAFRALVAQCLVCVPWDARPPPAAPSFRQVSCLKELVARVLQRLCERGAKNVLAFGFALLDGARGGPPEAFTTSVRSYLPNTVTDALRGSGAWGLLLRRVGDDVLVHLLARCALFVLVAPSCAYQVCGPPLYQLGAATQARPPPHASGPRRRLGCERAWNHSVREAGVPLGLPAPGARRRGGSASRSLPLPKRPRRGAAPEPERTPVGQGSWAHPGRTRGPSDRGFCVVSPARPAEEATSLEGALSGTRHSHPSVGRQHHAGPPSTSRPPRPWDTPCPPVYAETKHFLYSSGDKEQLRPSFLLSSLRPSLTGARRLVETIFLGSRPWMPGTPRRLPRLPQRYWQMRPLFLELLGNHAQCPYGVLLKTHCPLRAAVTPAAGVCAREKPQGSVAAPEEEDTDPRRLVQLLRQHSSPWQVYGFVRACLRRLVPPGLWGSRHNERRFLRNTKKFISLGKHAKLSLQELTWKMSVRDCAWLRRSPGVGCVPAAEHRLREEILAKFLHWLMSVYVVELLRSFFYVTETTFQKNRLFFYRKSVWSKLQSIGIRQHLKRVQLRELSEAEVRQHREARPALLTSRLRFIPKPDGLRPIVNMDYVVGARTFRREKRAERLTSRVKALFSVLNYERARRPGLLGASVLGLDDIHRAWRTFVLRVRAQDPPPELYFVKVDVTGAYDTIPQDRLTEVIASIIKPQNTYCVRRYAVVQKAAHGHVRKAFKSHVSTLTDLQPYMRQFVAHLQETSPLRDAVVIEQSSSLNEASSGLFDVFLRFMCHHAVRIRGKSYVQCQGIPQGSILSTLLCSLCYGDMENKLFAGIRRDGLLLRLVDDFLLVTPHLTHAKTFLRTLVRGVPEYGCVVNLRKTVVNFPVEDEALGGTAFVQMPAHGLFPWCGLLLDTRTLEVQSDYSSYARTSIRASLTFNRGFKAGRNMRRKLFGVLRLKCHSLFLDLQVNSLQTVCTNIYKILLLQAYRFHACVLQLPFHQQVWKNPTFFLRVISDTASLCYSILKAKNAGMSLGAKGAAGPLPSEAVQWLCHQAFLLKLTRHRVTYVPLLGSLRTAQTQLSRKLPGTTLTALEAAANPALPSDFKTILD
T1 sequence (O60832 whole entry partner): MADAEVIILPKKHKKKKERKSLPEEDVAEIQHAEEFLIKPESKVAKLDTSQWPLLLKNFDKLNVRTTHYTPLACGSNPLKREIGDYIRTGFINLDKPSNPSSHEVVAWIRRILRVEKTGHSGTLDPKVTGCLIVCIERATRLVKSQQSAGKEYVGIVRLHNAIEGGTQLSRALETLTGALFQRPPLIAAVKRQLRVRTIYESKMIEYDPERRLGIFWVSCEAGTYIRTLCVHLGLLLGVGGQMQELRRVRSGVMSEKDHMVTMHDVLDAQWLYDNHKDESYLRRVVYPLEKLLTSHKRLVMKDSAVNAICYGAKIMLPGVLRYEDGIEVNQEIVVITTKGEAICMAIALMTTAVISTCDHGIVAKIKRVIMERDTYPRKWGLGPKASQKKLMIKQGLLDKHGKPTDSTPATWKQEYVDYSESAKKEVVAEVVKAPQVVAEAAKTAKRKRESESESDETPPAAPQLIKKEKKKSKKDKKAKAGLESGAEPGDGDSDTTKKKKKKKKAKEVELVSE
T1 sequence (Q9NPE3 whole entry partner): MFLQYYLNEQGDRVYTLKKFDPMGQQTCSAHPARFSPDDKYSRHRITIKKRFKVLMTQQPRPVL
T1 sequence (Q9NX24 whole entry partner): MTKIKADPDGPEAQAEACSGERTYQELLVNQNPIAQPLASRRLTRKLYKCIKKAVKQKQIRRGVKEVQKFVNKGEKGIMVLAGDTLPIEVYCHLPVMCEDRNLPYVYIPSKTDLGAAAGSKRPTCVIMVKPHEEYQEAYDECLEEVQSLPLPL
T1 sequence (Q9NY12 whole entry partner): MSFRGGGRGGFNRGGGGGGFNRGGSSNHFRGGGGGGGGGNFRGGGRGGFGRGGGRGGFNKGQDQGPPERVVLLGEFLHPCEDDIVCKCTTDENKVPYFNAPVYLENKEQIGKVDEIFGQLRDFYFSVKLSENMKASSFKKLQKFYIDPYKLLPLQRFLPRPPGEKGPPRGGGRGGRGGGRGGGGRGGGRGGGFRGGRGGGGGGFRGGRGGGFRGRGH
Description: Alternatively, telomerase inhibitory activity of the compounds was measured in accordance with a known method (U.S. Pat. No. 5,760,062). That is, a dimethyl sulfoxide (DMSO) solution of each agent was mixed with partially purified telomerase from a nuclear extract of HEK293 cells and incubated in the presence of an oligodeoxynucleotide to be used as the substrate and deoxynucleotide triphosphate. The obtained reacted product (DNA having a telomere sequence) was adsorbed on a membrane, and hybridization was carried out using a labeled oligonucleotide probe having a sequence complementary to the telomere sequence. The inhibition ratio was calculated based on the ratio of the signal of label on the membrane in the presence of the agent to the signal of label in the absence of the agent (control). Also, concentration of each agent which inhibits 50% of the enzyme activity based on the control was used as IC50.

[2] = target: T2, telomerase in human renal carcinoma cell line ACHN (Homo sapiens, UniProt O14746); assay: Telomerase activity in extract of agent-treated ACHN cells (TRAP assay); type: cell-based; settings: contact 3 days
T2 construct: human renal carcinoma cell line ACHN for 3 days, and then a cell extract was prepared; endogenous in cells; host or cells: ACHN human renal carcinoma cells; CHAPS extract after 3 days of treatment
T2 sequence (O14746 whole entry): as the sequence (O14746 whole entry) above
T2 sequence (O60832 whole entry partner): as the sequence (O60832 whole entry partner) above
T2 sequence (Q9NPE3 whole entry partner): as the sequence (Q9NPE3 whole entry partner) above
T2 sequence (Q9NX24 whole entry partner): as the sequence (Q9NX24 whole entry partner) above
T2 sequence (Q9NY12 whole entry partner): as the sequence (Q9NY12 whole entry partner) above
Description: That is, a cell extract was prepared using a buffer solution containing 0.5% CHAPS. Using the extract, TRAP (Telomeric Repeat Amplification Protocol) assay was carried out in vitro (TRAPEZE™ ELISA Telomerase Detection Kit, manufactured by Intergen). The ratio (%) of the enzyme activity in the extract from agent-treated cells to the enzyme activity in the extract from agent-untreated cells was calculated.

| SMILES | IC50 [1] [µM] | other results |
| --- | --- | --- |
| O=C1NC(=O)C(=Cc2cc([N+](=O)[O-])ccc2Sc2ccc3ccccc3c2)S1 [Compound 171] | 7.2 |  |
| O=C1NC(=O)C(=Cc2cc([N+](=O)[O-])ccc2SC2CCCCC2)S1 [Compound 84] | 3.9 |  |
| O=C1NC(=O)C(=Cc2cc([N+](=O)[O-])ccc2Sc2ccc(C(=O)O)cc2)S1 [Compound 129] | 8.1 |  |
| CCc1ccc(CCOc2ccc(CC3SC(=O)NC3=O)cc2)nc1 (stereo not drawn) [Pioglitazone, pioglitazone, reference compound] | 83 |  |
| Cc1ccc(COc2ccc([N+](=O)[O-])c(C=C3SC(=O)NC3=O)c2)cc1 [Compound 21] | 4.3 | Residual Enzyme Activity (%) ([2]; concentration 30 μM): 35% |
| O=C1NC(=O)C(=Cc2cc([N+](=O)[O-])ccc2Sc2ccccc2Cl)S1 [Compound 71] | 2.7 |  |
| Cc1ccc(COc2ccc([N+](=O)[O-])cc2C=C2SC(=O)NC2=O)cc1 [Compound 18] | 11 |  |
| O=C1NC(=O)C(=Cc2ccc(N(c3ccc(CO)cc3)c3ccc(CO)cc3)cc2)S1 [Compound 49] | 4.4 |  |
| Cc1ccc(COc2ccc(-c3cccs3)cc2C=C2SC(=O)NC2=O)cc1 [Compound 48] | 1.6 |  |
| O=C1NC(=O)C(=Cc2ccc(N(Cc3ccccc3)c3ccccc3)cc2)S1 [Compound 121] | 4 |  |
| COc1ccc(Sc2ccc(C)cc2)c(C=C2SC(=O)NC2=O)c1 [Compound 104] |  | residual activity of in vitro telomerase activity (in parenthesis) [1]: (61%) |
| O=C1NC(=O)C(=Cc2cc([N+](=O)[O-])ccc2N2CCOCC2)S1 [Compound 125] | 1.6 |  |
| Cc1ccc(Sc2cc(C(F)(F)F)ccc2C=C2SC(=O)NC2=O)cc1 [Compound 101] |  | residual activity of in vitro telomerase activity (in parenthesis) [1]: (62%) |
| O=C1NC(=O)C(=Cc2ccccc2OC(F)(F)F)S1 [Compound 127] | 5.7 |  |
| O=C1NC(=O)C(=Cc2cc([N+](=O)[O-])ccc2OCc2ccc(Cl)c(Cl)c2)S1 [Compound 17] | 10 |  |
| Cc1ccc(Sc2ccc([N+](=O)[O-])cc2C=C2SC(=S)NC2=O)cc1 [Compound 38] |  | Residual Enzyme Activity (%) ([2]; concentration 30 μM): 36% |
| COc1ccc(OCc2ccc(C)cc2)c(C=C2SC(=O)NC2=O)c1 [Compound 23] | 14 |  |
| O=C1NC(=O)C(=Cc2cc([N+](=O)[O-])ccc2Oc2ccccc2)S1 [Compound 110] |  | residual activity of in vitro telomerase activity (in parenthesis) [1]: (53%) |
| O=C1NC(=O)C(=Cc2cc([N+](=O)[O-])ccc2Sc2ccc(C(F)(F)F)cc2)S1 [Compound 115] | 2.7 |  |
| O=C1NC(=O)C(=Cc2ccc(N(Cc3ccccc3)Cc3ccccc3)cc2)S1 [Compound 36] | 5.1 |  |
| O=C1NC(=O)C(=Cc2cccc(Oc3ccc(Cl)c(Cl)c3)c2)S1 [Compound 13] | 5.9 |  |
| Cc1c(C)c2c(c(C)c1O)CCC(C)(COc1ccc(CC3SC(=O)NC3=O)cc1)O2 (stereo not drawn) [Troglitazone, troglitazone, reference compound] | 16 |  |
| COc1cc(O)ccc1C=C1SC(=O)NC1=O [Compound 126] | 1.3 |  |
| Cc1ccc([S+]([O-])c2ccc(-c3cccs3)cc2C=C2SC(=O)NC2=O)cc1 (stereo not drawn) [Compound 93] |  | residual activity of in vitro telomerase activity (in parenthesis) [1]: (55%) |
| Cc1ccc([S+]([O-])c2ccc(-c3ccco3)cc2C=C2SC(=O)NC2=O)cc1 (stereo not drawn) [Compound 91] |  | residual activity of in vitro telomerase activity (in parenthesis) [1]: (61%) |

| SMILES | IC50 [1] [µM] | other results |
| --- | --- | --- |
| Cc1ccc(COc2cc(C=C3SC(=O)NC3=O)ccc2[N+](=O)[O-])cc1 [Compound 19] | 70 |  |
| CC(=O)Nc1ccc(Sc2ccc(C)cc2)c(C=C2SC(=O)NC2=O)c1 [Compound 3] |  | Residual Enzyme Activity (%) ([2]; concentration 100 μM): 0% |
| O=C1NC(=O)C(=Cc2cc([N+](=O)[O-])ccc2SCc2ccc(Cl)cc2)S1 [Compound 79] | 3.5 |  |
| Cc1ccc(COc2ccc(Cl)cc2C=C2SC(=O)NC2=O)cc1 [Compound 24] | 5.3 |  |
| Cc1ccc(Sc2ccc(CO)cc2C=C2SC(=O)NC2=O)cc1 [Compound 96] |  | residual activity of in vitro telomerase activity (in parenthesis) [1]: (62%) |
| Cc1ccc(Sc2cccc(C(F)(F)F)c2C=C2SC(=O)NC2=O)cc1 [Compound 99] | 6.9 |  |
| O=C1NC(=O)C(=Cc2ccc(C(O)(c3ccccc3)c3ccccc3)cc2)S1 [Compound 33] | 5.5 |  |
| Cc1ccc(COc2ccc(C=C3SC(=O)NC3=O)cc2[N+](=O)[O-])cc1 [Compound 20] | 9 |  |
| O=C1NC(=O)C(=Cc2cc([N+](=O)[O-])ccc2SCc2ccccc2)S1 [Compound 76] | 3.9 |  |
| O=C1NC(=O)C(=Cc2cc([N+](=O)[O-])ccc2Sc2cccc(Cl)c2)S1 [Compound 70] | 4.8 |  |
| Cc1ccc(COc2ccc(-c3ccccc3)cc2C=C2SC(=O)NC2=O)cc1 [Compound 47] | 4.1 |  |
| O=C1NC(=O)C(=Cc2ccc(Cc3ccccc3)cc2)S1 [Compound 32] | 21 |  |
| O=C1NC(=O)C(=Cc2cc([N+](=O)[O-])ccc2SCCO)S1 [Compound 122] | 7.7 |  |
| O=C1NC(=O)C(=Cc2ccc(C(=O)c3ccccc3)cc2)S1 [Compound 31] | 15 |  |
| COC(=O)c1cc(C=C2SC(=O)NC2=O)c(Sc2ccc(Cl)cc2)s1 [Compound 58] |  | residual activity of in vitro telomerase activity (in parenthesis) [1]: (56%) |
| Cc1ccc(Sc2ccc(C(=O)OCc3ccccc3)cc2C=C2SC(=O)NC2=O)cc1 [Compound 139] | 4.4 |  |
| Cc1ccc(COc2ccc(Br)cc2C=C2SC(=O)NC2=O)cc1 [Compound 25] | 4.2 |  |
| O=C1NC(=O)C(=Cc2ccc(N(c3ccccc3)c3ccccc3)cc2)S1 [Compound 26] | 4.2 |  |
| Cc1ccc(COc2ccccc2C=C2SC(=O)NC2=O)cc1 [Compound 22] |  | Residual Enzyme Activity (%) ([2]; concentration 100 μM): 33% |
| O=C1NC(=O)C(=Cc2sccc2Oc2ccccc2)S1 [Compound 59] | 2.1 |  |
| O=C1NC(=O)C(=Cc2ccc(CN(c3ccccc3)c3ccccc3)cc2)S1 [Compound 35] | 3.9 |  |
| O=C1NC(=O)C(=Cc2cccc(Oc3ccccc3)c2)S1 [Compound 11] |  | Residual Enzyme Activity (%) ([2]; concentration 100 μM): 50% |
| CCCN(CCC)c1ccc([N+](=O)[O-])cc1C=C1SC(=O)NC1=O [Compound 123] | 6.9 |  |
| COc1ccc(Sc2ccc([N+](=O)[O-])cc2C=C2SC(=O)NC2=O)cc1 [Compound 74] | 3.7 |  |
| O=C1NC(=O)C(=Cc2cc([N+](=O)[O-])ccc2N2CCCCC2)S1 [Compound 124] |  | residual activity of in vitro telomerase activity (in parenthesis) [1]: (54%) |

The next lines start with results.

| IC50 [1] [µM] | SMILES | other results |
| --- | --- | --- |
| 4.3 | O=C1NC(=O)C(=Cc2cc([N+](=O)[O-])ccc2Sc2ccc(Cl)c(Cl)c2)S1 [Compound 72] |  |
| 8.3 | Cc1ccc(Sc2ccc(C=C3SC(=O)NC3=O)cc2[N+](=O)[O-])cc1 [Compound 9] |  |
| 5.3 | O=C1NC(=O)C(=Cc2cc(C(=O)Nc3ccccc3)sc2Sc2ccc(Cl)cc2)S1 [Compound 55] |  |
| 6.5 | O=C1NC(=O)C(=Cc2cc(Br)c(Sc3ccc(Cl)cc3)s2)S1 [Compound 63] |  |
| 2.6 | O=C1NC(=O)/C(=C/c2c3ccccc3c(Sc3ccc(Cl)cc3)c3ccccc23)S1 [Compound 128] |  |
| 0.33 | O=C1NC(=O)C(=Cc2cc(Sc3ccc(Cl)cc3)c(Sc3ccc(Cl)cc3)s2)S1 [Compound 61] |  |
| 4.4 | Cc1ccc(Sc2ccc(C(F)(F)F)cc2C=C2SC(=O)NC2=O)cc1 [Compound 100] |  |
| 7.8 | Cc1ccc(Sc2ccc(C#N)cc2C=C2SC(=O)NC2=O)cc1 [Compound 94] |  |
| 7 | O=C1NC(=O)C(=Cc2cc([N+](=O)[O-])ccc2Sc2ccc(Br)cc2)S1 [Compound 73] |  |
| 9.7 | O=C1NC(=O)/C(=C/c2cc(Br)c([S+]([O-])c3ccc(Cl)cc3)s2)S1 (stereo not drawn) [Compound 64] |  |
| 0.77 | O=C1NC(=O)C(=Cc2cc(C(=O)O)sc2Sc2ccc(Cl)cc2)S1 [Compound 53] |  |
| 6.2 | O=C1NC(=O)C(=Cc2cc(C(=O)c3ccc(Cl)cc3)c(Sc3ccc(Cl)cc3)s2)S1 [Compound 65] |  |
| 2.6 | CSc1ccc(Sc2ccc([N+](=O)[O-])cc2C=C2SC(=O)NC2=O)cc1 [Compound 132] |  |
| 7.8 | O=C1NC(=O)C(=Cc2ccc(Sc3ccc(Cl)cc3)s2)S1 [Compound 62] |  |
| 4.5 | Cc1ccc(Sc2ccc(Cl)cc2C=C2SC(=O)NC2=O)cc1 [Compound 106] |  |
| 5.5 | O=C1NC(=O)C(=Cc2ccc(Sc3ccc(Br)cc3)c([N+](=O)[O-])c2)S1 [Compound 80] |  |
| 5.5 | Cc1ccc(Sc2ccc(C=C3SC(=O)NC3=O)cc2Oc2ccccc2)cc1 [Compound 137] |  |
| 1 | O=C1NC(=O)C(=Cc2cc([N+](=O)[O-])ccc2Sc2ccc(Cl)cc2)S1 [Compound 67] |  |
| 1.9 | O=C1NC(=O)C(=Cc2cc(-c3ccccc3)sc2Sc2ccc(Cl)cc2)S1 [Compound 44] |  |
| 4.3 | COc1cc(C=C2SC(=O)NC2=O)ccc1Sc1ccc(C)cc1 [Compound 138] |  |
| 3.7 | Cc1ccc(Sc2ccc(-c3ccco3)cc2C=C2SC(=O)NC2=O)cc1 [Compound 90] |  |
| 2.6 | O=C1NC(=O)C(=Cc2cc(Br)sc2Sc2ccc(Cl)cc2)S1 [Compound 43] |  |
| 4.5 | O=C1NC(=O)C(=Cc2cc(Sc3ccc(Cl)cc3)cs2)S1 [Compound 60] |  |
| 6.9 | Cc1ccc(Sc2ccc(Br)cc2C=C2SC(=O)NC2=O)cc1 [Compound 87] |  |
